Data on 31 compounds can be found in patent US7491827B2, “Aryl sulfonamides useful as inhibitors of chemokine receptor activity” (Millennium Pharmaceuticals, Inc., priority 2003, dated 2009).

This test concerns the target T1, cloned human CCR8 receptor stably expressed in L1.2 cells (Homo sapiens, UniProt P51685).
T1 construct: expressed in transfected cells
As to the kind of experiment: whole cell binding screen: inhibition of biotinylated human I309 binding to CCR8 (FMAT 8100 HTS). The following applies: biotinylated human I-309, 10 point concentration response starting at 10 μM. From the text: This whole cell binding screen evaluates the ability of compounds to inhibit biotinlyated human I309 binding to the cloned human CCR8 receptor stably expressed in L1.2 cells. Human CCR8 gene was amplified by PCR using PFU polymerase under standard conditions from human genomic DNA purchased from Stratagene. The PCR primers used were:
The 5′ and 3′ primers contained flanking enzyme sites (Bam Hi and Not 1,respectively), which were used to subclone the gene into pcDNA3.1. […] The CCR8 vector was then transfected into L1.2 cells (murine pre-B cells) by electroporation.
Compounds were screened using the FMAT™ 8100 HTS System (purchased from Applied Biosystems).
A suspension was prepared of L1.2/hCCR8 cells at 4.0×10^5 cells/mL in a binding buffer (Buffer consisting of Hanks Balanced Salt Solution (without phenol red), 10 mM HEPES, 0.1% Fatty Acid Free BSA, 0.02% Sodium Azide).
Dilution series of 10 mM stock concentrations of the test compounds were prepared in DMSO and further diluted into binding buffer defined above) to three times the final assay concentration.
10 point concentration response curve is constructed for each compound, starting at 10 μM (final assay concentration in Binding Buffer). […] The components were mixed in wells by covering the plate with aluminum foil and rotating for 0.5 hours. […] Average fluorescence reported for each concentration was normalized to percent inhibition based on negative (no inhibitor) and positive (100 nM excess unlabeled I309 (R and D Systems)) controls.

Setting [1] is: L1.2/hCCR8 cells, read-out: Ki of compounds to inhibit I-309 binding to CCR8.
Setting [2] is: Ki of compounds to inhibit I-309 binding to CCR8, L1.2/hCCR8 cells.

Where two headings read alike, the source gives them in different places.

Broadly, the Ki is the equilibrium dissociation constant of an inhibitor or competing ligand from its target.

T1 sequence (P51685 whole entry): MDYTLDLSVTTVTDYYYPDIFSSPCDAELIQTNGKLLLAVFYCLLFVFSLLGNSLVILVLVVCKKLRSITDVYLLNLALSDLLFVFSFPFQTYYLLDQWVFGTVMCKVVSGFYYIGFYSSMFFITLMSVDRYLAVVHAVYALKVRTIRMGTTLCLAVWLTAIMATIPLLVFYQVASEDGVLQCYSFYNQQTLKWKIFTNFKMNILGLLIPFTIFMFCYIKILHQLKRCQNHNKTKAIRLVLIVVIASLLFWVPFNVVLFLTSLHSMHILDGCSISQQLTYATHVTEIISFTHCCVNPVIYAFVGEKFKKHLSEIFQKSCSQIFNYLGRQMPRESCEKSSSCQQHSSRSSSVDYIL

Regarding `CC[C@H]1CN(C(=O)[C@H](C)N)CC[C@@H]1NS(=O)(=O)c1ccc(NC(=O)c2ccccc2C)c2ccccc12` [Compound J-33, (3S, 4S)-N-{4-[1-(2-(S)-Amino-propionyl)-3-ethyl-piperidin-4-ylsulfamoyl]-naphthalen-1-yl}-2-methyl-benzamide], the Ki under setting [1] is less than 500 nM.

For the compound `O=C(Nc1ccc(S(=O)(=O)NC2CCNCC2)c2ccccc12)C1CCCC1` [Compound D-11, Cyclopentanecarboxylic acid [4-(piperidin-4-ylsulfamoyl)-naphthalen-1-yl]-amide], the Ki under setting [1] was less than 30000 nM.

Consider `O=C(Nc1ccc(S(=O)(=O)NC2CCNCC2)c2ccccc12)C1CCCCC1` [Compound D-14, Cyclohexanecarboxylic acid [4-(piperidin-4-ylsulfamoyl)-naphthalen-1-yl]-amide], for which the Ki under setting [1] was less than 500 nM.

As to `CCOC(=O)N1CCC(NS(=O)(=O)c2ccc(NC(=O)c3ccccc3C)c3c2CCCC3)C1` (racemic) [Compound E-33, (±)-3-[4-(2-Methyl-benzoylamino)-5,6,7,8-tetrahydro-naphthalene-1-sulfonylamino]-pyrrolidine-1-carboxylic acid ethyl ester], the Ki under setting [1] was less than 500 nM.

With `O=C(Nc1ccc(S(=O)(=O)NCc2ccncc2)c2ccccc12)c1ccccc1` [Compound A-13, N-{4-[(Pyridin-4-ylmethyl)-sulfamoyl]-naphthalen-1-yl}-benzamide], under setting [1], the Ki was less than 30000 nM.

Regarding `COc1ccc(NS(=O)(=O)c2ccc(NC(=O)Cc3ccccc3)c3ccccc23)cc1` [Compound B-7, N-[4-(4-Methoxy-phenylsulfamoyl)-naphthalen-1-yl]-2-phenyl-acetamide], the inhibitory constant (Ki) under setting [1] is less than 500 nM.

As for `CCOC(=O)N1CCC(NS(=O)(=O)c2ccc(NC(=O)c3ccccc3)c3ccccc23)CC1` [Compound A-34, 4-(4-Benzoylamino-naphthalene-1-sulfonylamino)-piperidine-1-carboxylic acid ethyl ester], the Ki under setting [2] is less than 30000 nM.

For the compound `O=C(Nc1cc(S(=O)(=O)NC2CCCCC2)cc2c1CCCC2)c1ccccc1` [Compound H-54, N-(3-Cyclohexylsulfamoyl-5,6,7,8-tetrahydro-naphthalen-1-yI)-benzamide], the Ki under setting [1] is less than 500 nM.

In the case of `Cc1ccccc1C(=O)Nc1ccc(S(=O)(=O)N[C@@H]2CCN(C(=O)[C@H](C)N)C[C@H]2C)c2ccccc12` [Compound J-3, (3R, 4R)-N-{4-[1-(2-(S)-Amino-propionyl)-3-methyl-piperidin-4-ylsulfamoyl]-naphthalen-1-yl}-2-methyl-benzamide], the inhibitory constant (Ki) under setting [1] is less than 500 nM.

Take `CC(C)NC(=O)N1CCC(NS(=O)(=O)c2ccc(NC(=O)c3ccccc3)c3ccccc23)CC1` [Compound C-2, 4-(4-Benzoylamino-naphthalene-1-sulfonylamino)-piperidine-1-carboxylic acid isopropyl amide]: the Ki under setting [1] is less than 500 nM.

Regarding `CCOC(=O)N1CCC(NS(=O)(=O)c2ccc(CNCc3ccc(OC)cc3)c3ccccc23)CC1` [Compound G-10, 4-{4-[(4-Methoxy-benzylamino)-methyl]-naphthalene-1-sulfonylamino}-piperidine-1-carboxylic acid ethyl ester], the Ki under setting [1] was less than 500 nM.

For `CC(=O)N1CCC(NS(=O)(=O)c2ccc(NC(=O)c3ccccc3C)c3ccccc23)CC1` [Compound C-49, N-[4-(1-Acetyl-piperidin-4-ylsulfamoyl)-naphthalen-1-yl]-2-methyl-benzamide], under setting [2], the Ki is less than 500 nM.

Regarding `CCCC(=O)N1CCC(NS(=O)(=O)c2ccc(NC(=O)c3c(F)cccc3F)c3ccccc23)CC1` [Compound C-109, N-[4-(1-Butyryl-piperidin-4-ylsulfamoyl)-naphthalen-1-yl]-2,6-difluoro-benzamide], the Ki under setting [1] is less than 1000 nM.

Consider `COc1ccc(NS(=O)(=O)c2ccc3cccc(NC(=O)c4ccccc4)c3c2)cc1` [Compound H-47, N-[7-(4-Methoxy-phenylsulfamoyl)-naphthalen-1-yl]-benzamide], for which, under setting [1], the Ki was less than 500 nM.

With `Cc1ccccc1C(=O)Nc1ccc(S(=O)(=O)N[C@H]2CCN(C(=O)C3CCCN3)C[C@H]2C)c2cccnc12` (stereo in doubt) [Compound J-38, (3R, 4S)-2-Methyl-N-{5-[3-methyl-1-((R)pyrrolidine-2-carbonyl)-piperidin-4-ylsulfamoyl]-quinolin-8-yl}-benzamide], under setting [1], the Ki is less than 500 nM.

Consider `Cc1ccccc1C(=O)Nc1ccc(S(=O)(=O)NC2CCCNC2)c2c1CCCC2` (racemic) [Compound E-28, (±)-2-Methyl-N-[4-(piperidin-3-ylsulfamoyl)-5,6,7,8-tetrahydro-naphthalen-1-yl]-benzamide], for which the Ki under setting [1] is less than 500 nM.

For the compound `CC[C@@H]1CN(C(=O)[C@@H]2CCCN2)CC[C@H]1NS(=O)(=O)c1ccc(NC(=O)c2ccccc2C)c2ccccc12` [Compound J-30, (3R, 4R)-N-{4-[3-Ethyl-1-(pyrrolidine-2-(S)-carbonyl)-piperidin-4-ylsulfamoyl]-naphthalen-1-yl}-2-methyl-benzamide], the Ki under setting [1] was less than 500 nM.

Regarding `CN(C)C(=O)N1CCC(NS(=O)(=O)c2ccc(C(=O)NC3CCOCC3)c3ccccc23)CC1` [Compound F-21, 4-[4-(Tetrahydro-pyran-4-ylcarbamoyl)-naphthalene-1-sulfonylamino]-piperidine-1-carboxylic acid dimethylamide], the Ki under setting [1] was less than 500 nM.

Regarding `O=C(Nc1ccccc1Cl)c1ccc(S(=O)(=O)NC2CCNCC2)c2ccccc12` [Compound F-17, 4-(Piperidin-4-ylsulfamoyl)-naphthalene-1-carboxylic acid (2-chloro-phenyl)-amide], the Ki under setting [1] was less than 30000 nM.

`CCCC(=O)N1CCC(NS(=O)(=O)c2ccc(NC(=O)C3CCCCC3)c3ccccc23)CC1` [Compound D-16, Cyclohexanecarboxylic acid [4-(1-butyryl-piperidin-4-ylsulfamoyl)-naphthalen-1-yl]-amide]: under setting [2], the Ki is less than 500 nM.

`CCCC(=O)N1CCC(NS(=O)(=O)c2cccc3c(C(=O)Nc4ccccc4C)cccc23)CC1` [Compound H-39, 5-(1-Butyryl-piperidin-4-ylsulfamoyl)-naphthalene-1-carboxylic acid o-tolylamide]: the Ki under setting [1] was less than 500 nM.

Consider `CCOC(=O)N1CCCC(NS(=O)(=O)c2ccc(NC(=O)c3ccccc3C)c3ccccc23)C1` (racemic) [Compound C-115, (±)-3-[4-(2-Methyl-benzoylamno)-naphthalene-1-sulfonylamino]-piperidine-1-carboxylic acid ethyl ester], for which the Ki under setting [1] is less than 500 nM.

For the compound `Cc1ccccc1C(=O)Nc1ccc(S(=O)(=O)NC2CCN(C(=O)OC(C)(C)C)CC2)c2c1CCC2` [Compound H-66, 4-[7-(2-Methyl-benzoylamino)-indane-4-sulfonylamino]-piperidine-1-carboxylic acid tert-butyl ester], the inhibitory constant (Ki) under setting [1] was less than 1000 nM.

Turning to `Cc1ccccc1C(=O)Nc1ccc(S(=O)(=O)NC2CCN(C(=O)CO)CC2)c2ccccc12` [Compound C-121, N-{4-[1-(2—Hydroxy-acetyl)-piperidin-4-ylsuffamoyl]-naphthalen-1-yl}-2-methyl-benzamide], under setting [2], the Ki was less than 500 nM.

On to `CCCC(=O)N1CC[C@H](NS(=O)(=O)c2ccc(N3C(=O)c4ccccc4C3=O)c3ccccc23)[C@H](C)C1` (racemic) [Compound C-75, (±)-(cis)-4-(1,3-Dioxo-1,3-dihydro-isoindol-2-yl)-naphthalene-1-sulfonic acid (1-butyryl-3-methyl-piperidin-4-yl)-amide], for which the Ki under setting [1] is less than 500 nM.

Regarding `Cc1ccccc1C(=O)Nc1ccc(S(=O)(=O)N[C@H]2CCN(Cc3ccccc3)C[C@H]2C)c2ccccc12` (racemic) [Compound A-21, (±)-cis-N-[4-(1-Benzyl-3-methyl-piperidin-4-ylsulfamoyl)-naphthalen-1-yl]-2-methyl-benzamide], the Ki under setting [1] was less than 1000 nM.

As for `CCCC(=O)N1CCC(NS(=O)(=O)c2ccc(NC(=O)c3ccccc3OC)c3ccccc23)CC1` [Compound C-104, N-[4-(1-Butyryl-piperidin-4-ylsulfamoyl)-naphthalen-1-yl]-2-methoxy-benzamide], under setting [1], the Ki is less than 500 nM.

`CCN(CC)C(=O)N1CCC(NS(=O)(=O)c2ccc(NC(=O)c3ccccc3C)c3ccccc23)CC1` [Compound C-42, 4-[4-(2-Methyl-benzoylamino)-naphthalene-1-sulfonylamino]-piperidine-1-carboxylic acid diethylamide]: under setting [1], the Ki is less than 500 nM.

With `CCCC(=O)N1CC[C@H](NS(=O)(=O)c2ccc(NC(=O)c3ccccc3C)c3ccccc23)[C@H](C(=O)O)C1` (racemic) [Compound C-78, (±)-(cis)-1-Butyryl-4-[4-(2-methyl-benzoylamino)-naphthalene-1-sulfonylamino]-piperidine-3-carboxylic acid], the Ki under setting [1] was less than 30000 nM.

With `O=C(Nc1ccc(S(=O)(=O)NC2CCN(Cc3ccccc3)CC2)c2ccccc12)c1ccccc1` [Compound A-25, N-[4-(1-Benzyl-piperidin-4-ylsulfamoyl)-naphthalen-1-yl]-benzamide], under setting [1], the Ki was less than 500 nM.

For `CCOC(=O)[C@@H]1CNCC[C@@H]1NS(=O)(=O)c1ccc(NC(=O)c2ccccc2C)c2ccccc12` [Compound J-55], the Ki under setting [1] is less than 5000 nM.
